≈ marks a conversion by molar mass, not a printed value. Entries after “also recorded” stand apart in the source; their conditions may differ. Square brackets hold non-standard residues; d marks the D form. Peptide text beside a SMILES is read from it. NMeF = CN[C@@H](Cc1ccccc1)C(=O)O; PhLac = O=C(O)[C@@H](O)Cc1ccccc1; NMeL = CN[C@@H](CC(C)C)C(=O)O; NMeV = CN[C@H](C(=O)O)C(C)C; Hiv = CC(C)[C@H](O)C(=O)O; NMeA = CN[C@@H](C)C(=O)O
Columns and labels:
[1] = Solubility in aqueous media and organic solvents
[2] = molecular target: Aβ40 (Homo sapiens, UniProt P05067); assay: Inhibition of Aβ40 fibrillogenesis, thioflavin T fluorescence assay; format: biochemical
[3] = molecular target: T1, Aβ40 fibrils (Homo sapiens, UniProt P05067); assay: Electron microscopy of Aβ40 fibril inhibition and disassembly samples; format: biochemical; conditions: Aβ40 incubated with inhibitor peptide
[4] = Fibril formation by the peptide alone (electron microscopy, Congo Red); format: physicochemical
Procedure: After incubation of the inhibition and disassembly samples for the appropriate period of time, an aliquot of each sample was applied to a glow-discharge, 400-mesh, carbon-coated support film and stained with 1% uranyl acetate. Micrographs were recorded using Philips EM300 at magnifications of 17,000, 45,000 and 100,000.
(§1) The Congo Red binding assay was performed essentially as described in other publications (Klunk 1989). An aliquot of peptide solution containing 50 μg of peptide was added to 1 ml of a […] solution of Congo Red in 100 mM phosphate buffer, pH 7.4. The solution was incubated for 15 min at room temperature and then the absorbance was measured from 400-600 nm.
For the electron microscopy, aliquots of the inhibition and disassembly samples were applied to a glow-discharge, 400-mesh, carbon-coated support film and stained with 1% uranyl acetate. Micrographs were recorded using a Philips EM300 at magnifications of 17,000, 45,000 and 100,000.

[5] = molecular target: chymotrypsin (Bos taurus, UniProt P00766); assay: Chymotrypsin digestion (protease resistance), RP-HPLC; format: in vitro ADME; conditions: 24 h at 37° C., 0.1 mg/ml chymotrypsin, pH 8.4
Procedure: Peptides were incubated for 24 h at 37 C with […] chymotrypsin. The percentage of undigested peptide was determined by RC-HPLC as described in the Materials and Methods. […] The arrow marks the position of the intact.
The peptides were dissolved in 0.5% ammonium bicarbonate at a concentration of 1.0 mg/ml. The pH of the solution was 8.4. Chymotrypsin (Worthington Biochemical Corporation) was added to the peptide solutions so that the final concentration was 0.1 mg/ml. Samples were incubated at 37° C. After twenty-four hrs, the samples were frozen and lyophilized. The samples were analyzed by reverse-phase HPLC using an analytical C 18 column (Rainin Microsorb) and eluted, using a 60 min gradient from 10-70% acetonitrile, containing 0.1% (v/v) TFA. The loss of intact peptide and appearance of fragments were quantitated by integration of the appropriate peaks. Results were expressed as a percent digestion of the peptides. In addition, identities of the peaks were confirmed by electrospray mass spectrometry.
The peptides were dissolved in 0.5% ammonium bicarbonate at a concentration of 1.0 mg/ml. […] After twenty-four hours, the samples were lyophilized and then analyzed by reverse-phase HPLC (Rainin-Microsorb C18 column) and a water-acetonitrile (0.1% (v/v) TFA) gradient (10-70% acetonitrile over one h).

[6] = system: COS cells; assay: COS cell uptake of fluorescent peptides, fluorescence microscopy and HPLC reisolation; format: cell-based
Procedure: (§2) Briefly, COS cells, were plated on coverslips, and incubated overnight in the presence of 4 μM to β40 μM of the Anth-A16-20 peptide. The cells on coverslips were then washed extensively with PBS, fixed for one hour with a 3.7% formaldehyde solution and mounted on a slide. The cells were examined by fluorescence microscopy using a DAPI filter.
as §2, with “COS” for “Briefly, COS”, “cells,” for “cells, were”, “coverslips, were” for “coverslips, and”, “to 40” for “to β40”, “the Anth-Aβ16-20” for “the Anth-A16-20”
In this experiment, Anth-Aβ16-20m was incubated with COS cells for eight hours. […] The cells were then lysed by the addition of Triton X-100 to 0.1% (v/v), and the lysate was analyzed by HPLC. The HPLC solvent system contained 0.1% trifluoroacetic acid in water (solvent A) and 0.1% trifluoroacetic acid in acetonitrile (solvent B). The peptide was eluted with a gradient of 0%-60% solvent B in 60 minutes. Fractions (1 ml) from the HPLC were collected and analyzed by fluorescence spectroscopy. The excitation and emission wavelengths were 346 nm and 435 nm, respectively.

[7] = molecular target: T1, Aβ40 fibrils
[8] = molecular target: Aβ1-40 fibrils (Homo sapiens, UniProt P05067); assay: Congo Red binding assay of Aβ1-40 fibril inhibition and disassembly; format: biochemical
Procedure: as §1, with “Thioflavin T fluorescence is well known as a sensitive assay for the formation of amyloid fibrils. […] The Congo” for “The Congo”

T1 sequence (P05067 672-711): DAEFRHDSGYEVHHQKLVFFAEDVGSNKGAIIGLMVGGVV
Chain of Aβ40 (P05067 672-711): as above
Chain of Aβ1-40 fibrils (P05067 672-711): as above

Structure (SMILES): CC(C)C[C@@H](C(=O)N[C@H](C(=O)N(C)[C@@H](Cc1ccccc1)C(=O)N[C@@H](Cc1ccccc1)C(=O)N(C)[C@@H](C)C(=O)N[C@@H](CCCCN)C(N)=O)C(C)C)N(C)C(=O)[C@@H](N)CCC(=O)O [Aβ16-22mR, NH2-E(me-L)V(me-F)F(me-A)-K-CONH2] (H-E[NMeL]V[NMeF]F[NMeA]K-NH2)
- solubility in aqueous media (in words) [1]: highly soluble in aqueous solutions
- Inhibition of Fibrillogenesis ICmax [2]: 100
- Inhibition of Fibrilogenesis ICmax [2]: 100%
- effect on Aβ40 fibril formation (in words) [2]: prevented fibril formation of Aβ40 in a dose dependent manner

Structure (SMILES): CC(C)C[C@@H](C(=O)N[C@H](C(=O)N(C)[C@@H](Cc1ccccc1)C(=O)N[C@@H](Cc1ccccc1)C(=O)N(C)[C@@H](C)C(=O)N[C@@H](CCC(=O)O)C(N)=O)C(C)C)N(C)C(=O)[C@@H](N)CCCCN [Aβ16-22m, NH2-K(me-L)V(me-F)F(me-A)-E-CONH2] (H-K[NMeL]V[NMeF]F[NMeA]E-NH2)
- solubility in aqueous media (in words) [1]: highly soluble in aqueous solutions; also recorded: highly soluble in aqueous media
- solubility relative to unmethylated congener ([1]; physiological pH and ionic strength): 20-40 times
- fibrillar material by electron microscopy, inhibition samples [3]: complete lack of fibrils
- Inhibition of Fibrillogenesis ICmax [2]: 100
- Inhibition of Fibrilogenesis ICmax [2]: 100%
- effect on Aβ40 fibril formation (in words) [2]: prevented fibril formation of Aβ40 in a dose dependent manner
- molar excess of inhibitor giving complete elimination of thioflavin fluorescence (complete inhibition) [2]: > 30
- fibril formation by the peptide alone [4]: no fibrillar or aggregated material
- chymotrypsin digestion [5]: complete resistance; also recorded: highly resistant

Structure (SMILES): CNc1ccccc1C(=O)N[C@@H](CCCCN)C(=O)N[C@@H](CC(C)C)C(=O)N[C@H](C(=O)N[C@@H](Cc1ccccc1)C(=O)N[C@@H](Cc1ccccc1)C(N)=O)C(C)C [Anth-Aβ16-20]
- fluorescence of COS cells ([6]; peptide concentration 20 μM): Strong fluorescence
- fluorescence of COS cells ([6]; peptide levels below 4 μM): Very weak fluorescence
- Fibril Disassembly ICmax [7]: 100%
- Inhibition of Fibrilogenesis ICmax [2]: 100%

Structure (SMILES): CC(=O)N[C@@H](CCCCN)C(=O)N[C@@H](CC(C)C)C(=O)O[C@H](C(=O)N[C@@H](Cc1ccccc1)C(=O)O[C@@H](Cc1ccccc1)C(N)=O)C(C)C [Aβ16-20e, Ac—NH—KLesterVFesterF—CONH2] (Ac-KL[Hiv]F[PhLac]-NH2)
- Disassembly ICmax [7]: 100
- fibrillar material by electron microscopy, inhibition samples [3]: Fibrillar material was not observed
- Inhibition ICmax [2]: 100
- fibril formation by the peptide alone [4]: does not cause a change in the absorbance spectrum of Congo Red
- Congo Red spectrum, pre-formed Aβ1-40 fibrils to which inhibitor was added ([8]; disassembly): identical to the control spectrum of Congo Red alone
- Congo Red spectrum, Aβ1-40 incubated with inhibitor ([8]; inhibition): identical to the control spectrum of Congo Red alone

Structure (SMILES): CNc1ccccc1C(=O)N[C@@H](CCCCN)C(=O)N(C)[C@@H](CC(C)C)C(=O)N[C@H](C(=O)N(C)[C@@H](Cc1ccccc1)C(=O)N[C@@H](Cc1ccccc1)C(N)=O)C(C)C [Anth-Aβ16-20m, Anth-NH—K(me-L)V(me-F)F—CONH2]
- integrity of peptide internalized by COS cells and reisolated (HPLC) ([6]; overnight incubation): not modified or degraded
- fluorescence of COS cells ([6]; peptide levels below 4 μM): Very weak fluorescence
- intracellular fluorescence / permeation of COS cell membranes ([6]; twelve hours incubation): permeates cell membranes
- Inhibition ICmax [2]: 100

Structure (SMILES): CC(C)C[C@H](NC(=O)[C@@H](N)CCCCN)C(=O)N(C)[C@H](C(=O)N(C)[C@@H](Cc1ccccc1)C(=O)N(C)[C@@H](Cc1ccccc1)C(=O)N(C)[C@@H](C)C(=O)N[C@@H](CCC(=O)O)C(N)=O)C(C)C [Aβ16-22m(4), NH2-KL(me-V)(me-F)(me-F)(me-A)-E-CONH2] (H-KL[NMeV][NMeF][NMeF][NMeA]E-NH2)
- solubility in aqueous media (in words) [1]: highly soluble in water
- Inhibition of Fibrillogenesis ICmax [2]: 100
- Inhibition of Fibrilogenesis ICmax [2]: 100%

Structure (SMILES): CC(=O)N[C@@H](CCCCN)C(=O)N[C@@H](CC(C)C)C(=O)N(C)[C@H](C(=O)N[C@@H](Cc1ccccc1)C(=O)N(C)[C@@H](Cc1ccccc1)C(N)=O)C(C)C [Aβ16-20m2]
- solubility in aqueous media (in words) [1]: highly soluble in aqueous media

Structure (SMILES): CC(C)C[C@H](NC(=O)[C@@H](N)CCCCN)C(=O)N[C@H](C(=O)N[C@@H](Cc1ccccc1)C(=O)N[C@@H](Cc1ccccc1)C(=O)N[C@@H](C)C(=O)N[C@@H](CCC(=O)O)C(N)=O)C(C)C [Aβ16-22, NH2-KLVFFAE-CONH2] (H-KLVFFAE-NH2)
- Inhibition of Fibrillogenesis ICmax [2]: 23.0
- Inhibition of Fibrilogenesis ICmax [2]: 23.0%
- effect on Aβ40 fibril formation (in words) [2]: relatively modest inhibitory effect
- inhibition of fibrillogenesis [2]: 10-20%
- chymotrypsin digestion [5]: cleaved by chymotrypsin

Structure (SMILES): CC(=O)N[C@@H](CCCCN)C(=O)N[C@@H](CC(C)C)C(=O)N[C@H](C(=O)N[C@@H](Cc1ccccc1)C(=O)N[C@@H](Cc1ccccc1)C(N)=O)C(C)C [Aβ16-20, reference compound]
- solubility [1]: ~1000 µM (≈ 694 µg/mL)
- Inhibition ICmax [2]: 89
- fibril formation by the peptide alone [4]: aggregates to form amyloid fibrils; also recorded: bind Congo Red

Structure (SMILES): CC(C)[C@H](NC(=O)[C@H](C(C)C)N(C)C(=O)[C@H](C)NC(=O)[C@H](C)NC(=O)[C@H](C)NC(=O)[C@H](C)N(C)C(=O)[C@H](C)NC(=O)CN)C(N)=O [PrPm, NH2-GA(me-A)AAA(me-V)V-CONH2] (H-GA[NMeA]AAA[NMeV]V-NH2)
- Inhibition of Fibrillogenesis ICmax [2]: 8.6
- Inhibition of Fibrilogenesis ICmax [2]: 8.6%
- effect on Aβ40 fibril formation (in words) [2]: no effect

Structure (SMILES): CC(=O)N[C@@H](CCCCN)C(=O)N[C@@H](CC(C)C)C(=O)N[C@H](C(=O)N[C@@H](Cc1ccccc1)C(=O)N[C@@H](Cc1ccccc1)C(N)=O)C(C)C [Ac-Aβ16-20, Ac-NH-KLVFF-CONH2, reference compound]
- disassembly of pre-formed Aβ40 fibrils (in words) ([7]; thioflavin fluorescence): disassembled pre-formed
- Inhibition of Fibrillogenesis ICmax [2]: 100
- Inhibition of Fibrilogenesis ICmax [2]: 100%
